Assays:
MDA-MB-231 cells [1] = experiment: Cellular uptake and subcellular distribution of DOX (FACS, confocal, cell fractionation); assay type: cell-based, human
Method: Cellular uptake of GCS-SM/DOX NPs was quantified by flow cytometry and confocal microscopy. The intracellular distribution of the DOX was measured by cell fraction assay. MDA-MB-231 cells were seeded in 12 well plates at 200,000 cells/well and treated with DOX or GCS-SM/DOX NPs at the DOX concentration of 1 μM for 3 hours. Afterwards, cells were washed 3 times with cold PBS to remove un-bound DOX or nanoparticles. Cells were collected, fixed in 4% formaldehyde, and analyzed by FACS (BD Accuri C6, BD Biosciences).
To further investigate the uptake behaviors of nanoparticles, confocal microscopy was employed. MDA-MB-231 cells were seeded in petri dishes and treated with DOX or GCS-SM/DOX NPs at a DOX concentration of 1 μg/mL. After 3 hours of co-incubation, cells were washed 3 times and images were taken with a Zeiss 710 LM confocal microscope.
GCS-SM/DOX NPs were incubated with MDA-MB-231 cells at 37° C. for 1 hour. Cells were washed 3 times, then collected by scraping. Cells were subjected to subcellular fractionation after the treatment. […] DOX uptake amount was quantified by the fluorescent intensity at the excitation at 485 nm with the emission at 585 nm. The protein concentration of cytosol and nuclear fraction were quantified by BCA assay kit.

[2] = In vitro release kinetics by dialysis in PBS; assay type: physicochemical; details: within 1 hour, free drug
Method: Two milliliters of GCS-SM/DOX NPs were loaded in dialysis bags (MWCO: 6-8 KDa, Spectrum laboratories) and were put into 25 mL of PBS (pH 7.4, 100 mM) at 37° C. under continuous stirring. At predesigned time points, 1 mL of media was withdrawn. Concentrations of SM or DOX were determined by UV-Vis spectrometer (Beckman, DU650) at 312 nm and 480 nm, respectively. All experiments were carried out in triplicate independently.

MDA-MB-231 cells [3] = experiment: MTT cell viability assay with combination index analysis; assay type: cell-based, human
Method: The anticancer activities of the combination of DOX and SM were investigated with an MTT colorimetric assay. Cells with or without a/b FGF treatment were seeded in 96-well plates at an initial density of 20,000 cells/well. After 24 hours of incubation, the medium was replaced with 150 μL of fresh medium containing different treatments, including DOX, SM, and the combination of DOX and SM, and continued to be incubated for an additional 24 hours or 48 hours. Afterwards, the media were replaced with 100 μL fresh media containing 1 mg/mL MTT reagent and incubated for another 4 hours. The formed MTT crystals were dissolved with a stop solution and the final optical density of the medium was measured using a microplate reader (ELX808, Bio-Tech Instrument, Inc.) at λ=595 nm. A combination index (CI) analysis based on the Chou-Talalay method was performed using CalcuSyn software.

MDA-MB-231 cells [4] = experiment: Wound healing (cell migration) assay; assay type: cell-based, human; details: MDA-MB-231 pretreated with a/b FGF, live cell imaging
Method: The migration of breast cancer cells was evaluated with a wound healing assay. Living videos of cell migration in a 24-well plate were acquired with a Zeiss 710 LM confocal microscope. MDA-MB-231 cells were pretreated with a/b FGF for 24 hours. After that, a wound was created by scraping the cell monolayer in a straight line with a p200 tip, and cell debris was removed by washing with PBS three times. Cells were incubated with different treatments and allowed to grow in a 37° C. chamber with 5% CO2 for 24 hours. Videos were taken using a confocal microscope with a transmittance channel continuously at 10× magnification.

[5] = test system: Human umbilical vein endothelial cells (HUVECs); experiment: Endothelial tube formation assay; assay type: cell-based; details: HUVEC on Geltrex
Method: Human umbilical vein endothelial cells (HUVECs) were cultured and maintained in a complete EGM Medium. Cells were stained with Celltracker Deep red (1 μM) for 30 minutes prior to the experiment. One hundred and fifty microliters (μL) of Geltrex® (Thermofisher) was added to each well in a 24-well plate and allowed to be polymerized for 30 minutes at 37° C. HUVEC cells were seeded in each well at a density of 2×10^5 cells/mL. SM, GCS, and GCS-SM NPs at concentrations of 10 μM and 20 μM were mixed with cells prior to seeding in the coated gel layer. The tube formation was photographed at 6 hours and 20 hours with an inverted phase contrast microscope (Canon Powershot A640) in a randomly selected field under 10× magnification, and the number of formed tubes and length of the tubes were quantified manually by Image J. Fluorescent images of cells were photographed by Zeiss 710 LM confocal microscope under 10× magnification.

[6] = test system: CD31 stained microvessels in tumor tissues; experiment: CD31 immunohistochemistry of tumor microvessels; assay type: in vivo, Female athymic mice (nu/nu); details: CD31 IHC
Method: Tissue sections of 5 μm thickness were obtained from the formalin fixed, paraffin embedded tissue blocks with a microtome. The standard hematoxylin and eosin staining was performed in the lung, liver and kidney tissue sections of each group. To study the tumor neovasculature, CD31 IHC was applied to identify the intra-tumor blood vessel distribution. The section was deparaffinized and treated for 30 minutes with 0.5 M Tris buffer (pH 10) at 95° C. for antigen retrieval. Sections were blocked in 5% goat serum for 20 min at room temperature. The sections were blocked with peroxidase block for 5 minutes and incubated with a primary antibody (rabbit polyclonal anti-CD31 antibody) diluted with 1% BSA (1:50) for 1 hour at room temperature, followed by the staining with peroxidase labelled polymer for 30 minutes at room temperature. The sections were then developed with the substrate-DAB for 5 minutes at room temperature and counterstained with Gill's Hematoxylin for 10 seconds. The slides were mounted with ProLong® Gold Antifade Mountant and imaged at 40× magnification with a microscope.

human prostate PC3 cells = details: in the presence of doxorubicin; cited from earlier work
MDA-MB-231 cells [7] = experiment: Transwell Matrigel cell invasion assay; assay type: cell-based, human; details: 40 μM SM, 16 hours; control 952
Method: BD cell culture inserts with a pore size of 8 μm (BD, Biosciences) were pre-coated with 100 μL of Matrigel at the concentration of 0.2 mg/mL (dilution from BD Matrigel stock 10 mg/mL with coating buffer). MDA-MB-231 cells were seeded at a density of 70,000 cells per 50 μL in the inserts in an FBS-free DMEM medium. SM or GCS-SM NPs was then added to the inserts together with 50 μL serum free medium. Each lower chamber was supplied with 1.2 mL 10% FBS containing medium supplemented with different treatments that were the same as each respective top chamber. After 16 hours of incubation, the inserts were washed with PBS and fixed with methanol. Subsequently, cells were stained with hematoxylin and washed twice with PBS. The membrane in each of the inserts was then cut and mounted onto a coverslip, and the cell number was counted with a light microscope under 10× magnification. Each well was imaged at 5 different fields, and the invasion rate was expressed by the average number of cells per microscopic field.

MDA-MB-231/Luc-GFP cells = experiment: Breast cancer lung metastasis mouse model (tail vein MDA-MB-231/Luc-GFP); assay type: in vivo, Female athymic mice (nu/nu)
Method: All animal experiments were conducted in accordance with NIH regulations and approved by the Institutional Animal Care and Use Committee of the University of South Carolina. Female athymic mice at the age of 6 to 8 weeks (nu/nu) were obtained from Jackson laboratory. […] Mice were then randomly divided into 5 groups and received the following treatments: 1) saline only; 2) SM at the dose of 3.5 mg/kg once per week; 3) free SM and DOX at the dose of 3.5 mg/kg of SM and 0.5 mg/kg of DOX once per week; 4) GCS-SM NPs at the dose of 3.5 mg/kg of SM once per week; 5) GCS-SM/DOX NPs at the dose of 3.5 mg/kg of SM and 0.5 mg/kg of DOX (molar ratio of SM to DOX is 17:1) once per week. The whole treating procedure lasted for two months and the progression of tumors was monitored every week by luminescence with an IVIS Lumia system after i.v. injection of luciferin (30 mg/mL, 50 μL). Bodyweights of the mice were recorded at the same time. At the endpoint of each mouse, organs were isolated and collected. The weights of the lungs were recorded. Fluorescent images of the lungs were also captured. The collected organs were fixed in 10% neutralized formalin solution and embedded in paraffin.

[8] = Histology (H&E) of lung, liver, kidney and TEM of heart of treated mice; assay type: in vivo, Female athymic mice (nu/nu)
Method: All animal experiments were conducted in accordance with NIH regulations and approved by the Institutional Animal Care and Use Committee of the University of South Carolina. Female athymic mice at the age of 6 to 8 weeks (nu/nu) were obtained from Jackson laboratory. MDA-MB-231/Luc-GFP cells were implanted by tail vein injection (2×10^6 cells in 100 μL PBS). Mice were then randomly divided into 5 groups and received the following treatments: 1) saline only; 2) SM at the dose of 3.5 mg/kg once per week; 3) free SM and DOX at the dose of 3.5 mg/kg of SM and 0.5 mg/kg of DOX once per week; 4) GCS-SM NPs at the dose of 3.5 mg/kg of SM once per week; 5) GCS-SM/DOX NPs at the dose of 3.5 mg/kg of SM and 0.5 mg/kg of DOX (molar ratio of SM to DOX is 17:1) once per week. The whole treating procedure lasted for two months and the progression of tumors was monitored every week by luminescence with an IVIS Lumia system after i.v. injection of luciferin (30 mg/mL, 50 μL). Bodyweights of the mice were recorded at the same time. At the endpoint of each mouse, organs were isolated and collected. The weights of the lungs were recorded. Fluorescent images of the lungs were also captured. The collected organs were fixed in 10% neutralized formalin solution and embedded in paraffin.
Tissue sections of 5 μm thickness were obtained from the formalin fixed, paraffin embedded tissue blocks with a microtome. […]

For `COc1cccc2c1C(=O)c1c(O)c3c(c(O)c1C2=O)C[C@@](O)(C(=O)CO)C[C@@H]3O[C@H]1C[C@H](N)[C@H](O)[C@H](C)O1` [DOX, doxorubicin], the DOX cellular uptake (MDA-MB-231 cells [1]; MDA-MB-231 pretreated with a/b FGF, confocal/FACS, 1-6 hours) was “entered cells much more slowly than GCS-SM/DOX NPs”, the “subcellular localization of DOX” value (MDA-MB-231 cells [1]; confocal, after 3 hours of treatment) was “still stayed in the cytosol” and the “release of free DOX” value [2] was “about 75%”. For the same compound, the “cytotoxicity of DOX on further increase of SM” value (MDA-MB-231 cells [3]; SM 20 μM or 100 μM, presence of a/b FGF) was “did not additionally boost its cytotoxicity” and the “cytotoxicity of DOX on addition of SM” value (MDA-MB-231 cells [3]; addition of 10 μM SM, presence of a/b FGF) was “greatly enhanced”.

In the case of `Cc1ccc(C(=O)Nc2ccc(S(=O)(=O)O)c3cc(S(=O)(=O)O)cc(S(=O)(=O)O)c23)cc1NC(=O)c1cccc(NC(=O)Nc2cccc(C(=O)Nc3cc(C(=O)Nc4ccc(S(=O)(=O)O)c5cc(S(=O)(=O)O)cc(S(=O)(=O)O)c45)ccc3C)c2)c1` [SM, 8,8′-[carbonylbis[imino-3,1-phenylenecarbonylimino (4-methyl-3,1-phenylene)carbonylimino]]bisnaphthalene-1,3,5-trisulphonic acid], the “inhibitory effect on cell migration” value (MDA-MB-231 cells [4]) is reported as “only slightly inhibited cell migration”, the “tube formation ability of HUVECs” value [5] is reported as “significantly inhibited” and the “formation of new microvessels in tumor tissues” value [6] is reported as “did not decrease the formation of new blood vessels”. The “concentration reversing FGF-induced drug resistance” value (human prostate PC3 cells) was 1 to 17 µM, the “number of invaded MDA-MB-231 cells in each view area” value (MDA-MB-231 cells [7]) was 718 and the “survival rates versus control” value (MDA-MB-231/Luc-GFP cells; Kaplan-Meier at 12 weeks) was “moderately increased survival rates”. For the same compound, the median survival time (MDA-MB-231/Luc-GFP cells; Kaplan-Meier at 12 weeks, control 64.5 days) was 76.5 days, the “proliferation of cancer cells and metastasis (whole-body luminescence)” value (MDA-MB-231/Luc-GFP cells; SM 3.5 mg/kg and/or DOX 0.5 mg/kg once per week, imaging over 6 weeks) was “slowed down compared to the control” and the body weight change (MDA-MB-231/Luc-GFP cells; after 8 weeks of treatment) was “did not cause significant weight loss”. The “effect on lung weight” value (MDA-MB-231/Luc-GFP cells; compared to control group) was “Neither the SM nor the GCS-SM NP groups showed significant effect on lung weight”, the kidney histology [8] was “normal kidney histologic structure” and the “lung histology: tumor area” value [8] was “mild reduction in the occupied area ratio between the tumorous tissue and normal tissue”. For the same compound, the cytotoxicity (MDA-MB-231 cells [3]; 200 μM SM, 24 hours, MDA-MB-231) was “no cytotoxicity was observed”, the IC50 (MDA-MB-231 cells [3]; Homo sapiens, 48 hours of treatment, MDA-MB-231) was 200 µM and the “inhibition of cell proliferation (cytotoxicity)” value (MDA-MB-231 cells [3]; concentrations up to 200 μM, within 24 h) was “neither SM nor GCS-SM NP inhibited cell proliferation”.
